{
  "source": "paper PMC6522912",
  "about": "“Evaluation of the published kinase inhibitor set to identify multiple inhibitors of bacterial ATP-dependent mur ligases” (Journal of Enzyme Inhibition and Medicinal Chemistry, 2019)",
  "key": {"E. coli MurD": {"target": "E. coli MurD (Escherichia coli, UniProt P14900)", "sequence (P14900 whole entry)": "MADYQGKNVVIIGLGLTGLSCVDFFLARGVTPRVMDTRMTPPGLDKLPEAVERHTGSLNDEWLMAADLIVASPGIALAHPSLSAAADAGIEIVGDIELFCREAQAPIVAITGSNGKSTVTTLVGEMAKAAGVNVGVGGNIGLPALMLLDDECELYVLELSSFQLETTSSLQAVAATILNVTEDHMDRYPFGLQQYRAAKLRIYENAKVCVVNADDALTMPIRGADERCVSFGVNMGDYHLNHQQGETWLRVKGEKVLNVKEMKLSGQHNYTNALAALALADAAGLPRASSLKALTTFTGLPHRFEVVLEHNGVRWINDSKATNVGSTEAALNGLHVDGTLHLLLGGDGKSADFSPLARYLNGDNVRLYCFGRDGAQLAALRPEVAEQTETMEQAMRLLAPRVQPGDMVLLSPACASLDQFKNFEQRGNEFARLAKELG", "assay": "biochemical", "how_it_was_run": "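Reaction 15 min at 37 °C, then phosphate detected with Biomol green at 650 nm. Values are residual activity versus 5% DMSO carrier controls.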"}, "human kinases": {"system": "human kinases", "details": "over 200 kinase activity assays and 68 DSF assays; cited from earlier work"}, "E. coli MurC": {"target": "E. coli MurC (Escherichia coli, UniProt P17952)", "sequence (P17952 whole entry)": "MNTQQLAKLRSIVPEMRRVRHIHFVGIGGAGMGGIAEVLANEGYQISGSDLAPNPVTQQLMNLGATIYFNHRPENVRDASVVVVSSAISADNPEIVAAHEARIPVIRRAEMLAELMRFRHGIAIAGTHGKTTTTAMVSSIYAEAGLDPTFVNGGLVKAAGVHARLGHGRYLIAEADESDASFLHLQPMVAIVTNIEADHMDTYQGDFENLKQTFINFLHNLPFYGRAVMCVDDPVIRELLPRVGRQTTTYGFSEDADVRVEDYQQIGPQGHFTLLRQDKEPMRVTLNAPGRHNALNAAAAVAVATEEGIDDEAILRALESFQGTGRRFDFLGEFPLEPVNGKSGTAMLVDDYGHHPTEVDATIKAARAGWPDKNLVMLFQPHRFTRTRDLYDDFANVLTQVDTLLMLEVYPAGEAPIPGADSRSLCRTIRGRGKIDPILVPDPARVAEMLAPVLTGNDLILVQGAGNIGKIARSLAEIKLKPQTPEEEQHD", "assay": "Malachite green inhibition assay, MurC", "type": "biochemical"}, "E. coli MurF": {"target": "E. coli MurF (Escherichia coli, UniProt P11880)", "sequence (P11880 whole entry)": "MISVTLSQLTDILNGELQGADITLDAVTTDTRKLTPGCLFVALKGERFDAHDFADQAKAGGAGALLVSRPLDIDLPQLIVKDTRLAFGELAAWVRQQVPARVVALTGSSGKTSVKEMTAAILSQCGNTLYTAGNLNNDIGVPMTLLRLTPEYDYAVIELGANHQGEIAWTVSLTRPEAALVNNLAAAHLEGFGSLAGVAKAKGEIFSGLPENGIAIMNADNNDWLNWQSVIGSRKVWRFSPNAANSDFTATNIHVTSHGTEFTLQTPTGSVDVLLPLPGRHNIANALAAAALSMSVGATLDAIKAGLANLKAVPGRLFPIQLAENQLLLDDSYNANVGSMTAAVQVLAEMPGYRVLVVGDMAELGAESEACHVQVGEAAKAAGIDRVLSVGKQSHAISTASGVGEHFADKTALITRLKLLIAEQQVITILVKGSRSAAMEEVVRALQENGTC", "assay": "biochemical"}, "[1]": {"details": "ligand efficiency, LE = (1.37 × pIC50)/HAC"}, "[2]": {"details": "residual activity at 100 µM compound, Table 1"}, "[3]": {"details": "Table S3, aza stilbene compounds"}},
  "note": "pIC50: −log10 of the molar value.",
  "data": [
    {"smiles": "Cc1cc(-c2ccco2)cc(C)c1/C=C/c1cncc(-c2nn[nH]n2)c1", "note": "[Compound 1]", "values": [
      {"measurement": "remaining activity at 100 µM", "setting": "E. coli MurD; 0.25 h, Table S1, PKIS screening, read-out: RA [%] at 100 µM MurD", "result": 45, "unit": "%"},
      {"measurement": "pIC50", "setting": "E. coli MurD; Table 1, read-out: MurD IC50", "result": 3.98},
      {"measurement": "LE (MurD)", "setting": "E. coli MurD; [1]", "result": 0.21},
      {"measurement": "MurD RA [%]", "setting": "E. coli MurD; [2]", "result": 45, "unit": "%"},
      {"measurement": "activity at human kinases", "setting": "human kinases", "result": "no appreciable activity"},
      {"measurement": "remaining activity at 100 µM", "setting": "E. coli MurC; 0.25 h, Table S1, PKIS screening, read-out: RA [%] at 100 µM MurC", "result": 70, "unit": "%"},
      {"measurement": "pIC50", "setting": "E. coli MurC; Table 1, read-out: MurC IC50", "result": 3.43},
      {"measurement": "RA (%) MurC", "setting": "E. coli MurC; [3]", "result": 70, "unit": "%"},
      {"measurement": "MurC RA [%]", "setting": "E. coli MurC; [2]", "result": 70, "unit": "%"},
      {"measurement": "remaining activity at 100 µM", "setting": "E. coli MurF; 0.25 h, Table S1, PKIS screening, read-out: RA [%] at 100 µM MurF", "result": 26, "unit": "%"},
      {"measurement": "pIC50", "setting": "E. coli MurF; Table 1", "result": 4.23},
      {"measurement": "RA (%) MurF", "setting": "E. coli MurF; [3]", "result": 26, "unit": "%"},
      {"measurement": "LE (MurF)", "setting": "E. coli MurF; [1]", "result": 0.22},
      {"measurement": "MurF RA [%]", "setting": "E. coli MurF; [2]", "result": 26, "unit": "%"}
    ]}
  ]
}
